Results as given in the supplement of paper PMC11061612.

Legend:
[1] = system: NCI-H2085 (Non-Small Cell Lung Carcinoma); assay: Bliss excess, mean over the matrix (fraction); higher = more synergy
Summary of the method: (§1)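 Cell lines grown in DMEM/F12 or RPMI with 10% FBS were plated in 1536-well plates and held 24 hours at 37°C, 5% CO2 before 72 hours of exposure to two-drug dose matrices, with DMSO typically at 0.2%. CellTiter-Glo 2.0 luminescence gave viability, which was converted to inhibition. Vehicle wells were set to 0 and blank wells to 1. Combination Emax is the second-highest inhibition in the matrix, and Bliss excess is the observed combination effect minus the expected EA + EB − EA·EB, where EA and EB are the single-agent effects.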

[2] = system: SK-ES-1 (Ewing's Sarcoma); assay: as above
Summary of the method: as §1

[3] = system: RO82-W-1 (Thyroid Gland Carcinoma); assay: as above
Summary of the method: as §1

[4] = system: NCI-H1869 (Non-Small Cell Lung Carcinoma); assay: as above
Summary of the method: as §1

[5] = system: CAL-148 (Breast Carcinoma); assay: as above
Summary of the method: as §1

[6] = system: KP-1N (Pancreatic Carcinoma); assay: as above
Summary of the method: as §1

[7] = system: TCCSUP (Bladder Carcinoma); assay: as above
Summary of the method: as §1

[8] = system: TE-15 (Esophageal Squamous Cell Carcinoma); assay: as above
Summary of the method: as §1

[9] = system: HO-1-N-1 (Oral Cavity Carcinoma); assay: as above
Summary of the method: as §1

[10] = system: LU-135 (Small Cell Lung Carcinoma); assay: as above
Summary of the method: as §1

NOS-1 (Osteosarcoma) = assay: as above
Summary of the method: as §1

AGS (Gastric Carcinoma) = assay: as above
Summary of the method: as §1

[11] = system: LNCaP-Clone-FGC (Prostate Carcinoma); assay: as above
Summary of the method: as §1

[12] = system: NCI-H1869 (Non-Small Cell Lung Carcinoma); assay: combination Emax (second highest fraction inhibited in the dose matrix, 72 h); higher = more inhibition; extreme values may be limits of the assay
Summary of the method: as §1
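For Bliss excess, mean over the matrix in this document: after 72 h of two-drug dosing.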

Compound | Bliss excess [1] | Bliss excess [2] | Bliss excess [3] | Bliss excess [4] | Bliss excess [5] | Bliss excess [6] | Bliss excess [7] | Bliss excess [8] | Bliss excess [9] | Bliss excess [10] | Bliss excess (NOS-1 (Osteosarcoma)) | Bliss excess (AGS (Gastric Carcinoma)) | Bliss excess [11] | combination Emax [12]
CN(C)CCCOc1ccc(-c2ccc3ncc4c(c3c2)n(C2CCOCC2)c(=O)n4C)cn1 [AZD0156] + O=C(c1cc(Cc2n[nH]c(=O)c3ccccc23)ccc1F)N1CCN(C(=O)C2CC2)CC1 [Olaparib] (first compound max 3 µM, partner max 3 µM) | 0.0267 | 0.393 | -0.0299 | -0.0306 | 0.0072 | -0.0043 | 0.0405 | 0.0576 | 0.0618 | 0.0632 | 0.0594 | 0.0736 | 0.0755 | 0.19
C[C@@H](c1ccc2nccn2c1)n1nnc2ncc(-c3cnn(C)c3)nc21 [Savolitinib] + CC1(C)CCC(CN2CCN(c3ccc(C(=O)NS(=O)(=O)c4ccc(NCC5CCOCC5)c([N+](=O)[O-])c4)c(Oc4cnc5[nH]ccc5c4)c3)CC2)=C(c2ccc(Cl)cc2)C1 [Venetoclax] (first compound max 1 µM, 7x7, partner max 1 µM) | -0.0364 | -0.0545 | -0.0371 | – | -0.0359 | -0.0646 | -0.0551 | -0.0227 | -0.0105 | -0.0561 | -0.05 | -0.0729 | -0.0593 | –
C[C@@H](c1ccc2nccn2c1)n1nnc2ncc(-c3cnn(C)c3)nc21 [Savolitinib] + Cc1c2c(nn1C)CSCc1cc(n(C)n1)CSc1cc(c3ccccc3c1)OCCCc1c(C(=O)O)n(C)c3c-2c(Cl)ccc13 [AZD5991] (first compound max 1 µM, 7x7, partner max 1 µM) | -0.0401 | -0.0326 | -0.0386 | – | 0.0087 | -0.0637 | -0.0262 | -0.0511 | -0.0373 | -0.0056 | -0.059 | -0.0855 | -0.0148 | –
Cn1cnc2c(F)c(Nc3ccc(Br)cc3Cl)c(C(=O)NOCCO)cc21 [Selumetinib] + C=CCn1c(=O)c2cnc(Nc3ccc(N4CCN(C)CC4)cc3)nc2n1-c1cccc(C(C)(C)O)n1 [AZD1775] (first compound max 10 µM, partner max 1 µM) | -0.0751 | -0.0706 | -0.0769 | – | -0.0543 | -0.0298 | -0.0432 | -0.0299 | -0.0206 | -0.0337 | 0.0355 | 0.0064 | -0.15 | –
Cn1cnc2c(F)c(Nc3ccc(Br)cc3Cl)c(C(=O)NOCCO)cc21 [Selumetinib] + CC(C)n1c(=O)n(C)c2cnc3cc(F)c(-c4ccc(OCCCN5CCCCC5)nc4)cc3c21 [AZD1390] (first compound max 10 µM, 7x7, partner max 0.3 µM) | -0.06 | -0.0246 | -0.034 | – | -0.0421 | -0.0532 | -0.0588 | -0.0359 | 0.0053 | -0.0318 | 0.0117 | -0.0446 | -0.0381 | –
Cn1cnc2c(F)c(Nc3ccc(Br)cc3Cl)c(C(=O)NOCCO)cc21 [Selumetinib] + CCN(CCO)CCCOc1ccc2c(Nc3cc(CC(=O)Nc4cccc(F)c4)[nH]n3)ncnc2c1 [AZD2811] (first compound max 10 µM, 7x7, partner max 1 µM) | -0.0589 | -0.0272 | 0.0016 | – | -0.029 | -0.0461 | -0.0822 | -0.0741 | -0.0692 | -0.0118 | -0.0092 | 0.11 | 0.0253 | –
Cn1cnc2c(F)c(Nc3ccc(Br)cc3Cl)c(C(=O)NOCCO)cc21 [Selumetinib] + C[C@@H]1COCCN1C2=NC(=NC(=C2)C3(CC3)[S@](=N)(=O)C)C4=C5C=CNC5=NC=C4 [AZD6738] (first compound max 10 µM, 7x7, partner max 10 µM) | -0.0063 | -0.005 | -0.0242 | – | -0.0407 | -0.0061 | -0.0141 | 0.0391 | -0.0475 | 0.0383 | 0.043 | 0.0281 | -0.0018 | –
CC(=O)Nc1cccc(-n2c(=O)n(C3CC3)c(=O)c3c(Nc4ccc(I)cc4F)n(C)c(=O)c(C)c32)c1 [Trametinib] + Cc1nc(-c2cn3c(n2)-c2ccc(-c4cnn(C(C)(C)C(N)=O)c4)cc2OCC3)n(C(C)C)n1 [Taselisib] (first compound max 1 µM, 7x7, partner max 10 µM) | 0.0062 | 0.0641 | 0.0426 | – | 0.0554 | 0.101 | 0.0896 | 0.0816 | 0.268 | 0.113 | 0.191 | 0.122 | -0.0056 | –
CC1(C)CCC(CN2CCN(c3ccc(C(=O)NS(=O)(=O)c4ccc(NCC5CCOCC5)c([N+](=O)[O-])c4)c(Oc4cnc5[nH]ccc5c4)c3)CC2)=C(c2ccc(Cl)cc2)C1 [Venetoclax] + C1CN(CCC1(C(=O)N[C@@H](CCO)C2=CC=C(C=C2)Cl)N)C3=NC=NC4=C3C=CN4 [Capivasertib] (first compound max 1 µM, 7x7, partner max 3 µM) | -0.0569 | 0.0068 | -0.0312 | – | -0.0444 | -0.0193 | -0.0196 | -0.0429 | -0.0176 | -0.0429 | -0.0157 | -0.0406 | -0.0464 | –
CC1(C)CCC(CN2CCN(c3ccc(C(=O)NS(=O)(=O)c4ccc(NCC5CCOCC5)c([N+](=O)[O-])c4)c(Oc4cnc5[nH]ccc5c4)c3)CC2)=C(c2ccc(Cl)cc2)C1 [Venetoclax] + C=CCn1c(=O)c2cnc(Nc3ccc(N4CCN(C)CC4)cc3)nc2n1-c1cccc(C(C)(C)O)n1 [AZD1775] (first compound max 1 µM, partner max 1 µM) | -0.063 | 0.0455 | -0.0757 | – | 0.0589 | -0.047 | -0.055 | -0.0737 | 0.0912 | -0.0538 | 0.0193 | -0.0506 | -0.0599 | –
CC1(C)CCC(CN2CCN(c3ccc(C(=O)NS(=O)(=O)c4ccc(NCC5CCOCC5)c([N+](=O)[O-])c4)c(Oc4cnc5[nH]ccc5c4)c3)CC2)=C(c2ccc(Cl)cc2)C1 [Venetoclax] + CCN(CCO)CCCOc1ccc2c(Nc3cc(CC(=O)Nc4cccc(F)c4)[nH]n3)ncnc2c1 [AZD2811] (first compound max 1 µM, 7x7, partner max 1 µM) | -0.0189 | 0.0156 | -0.0604 | – | -0.0461 | -0.0182 | -0.0259 | -0.0386 | -0.032 | -0.0099 | -0.0156 | 0.0196 | -0.0706 | –
CC1(C)CCC(CN2CCN(c3ccc(C(=O)NS(=O)(=O)c4ccc(NCC5CCOCC5)c([N+](=O)[O-])c4)c(Oc4cnc5[nH]ccc5c4)c3)CC2)=C(c2ccc(Cl)cc2)C1 [Venetoclax] + CN(C)CCCOc1ccc(-c2ccc3ncc4c(c3c2)n(C2CCOCC2)c(=O)n4C)cn1 [AZD0156] (first compound max 1 µM, 7x7, partner max 1 µM) | -0.0295 | 0.0502 | -0.0586 | – | -0.0006 | -0.0431 | -0.036 | -0.0298 | 0.0445 | -0.0012 | -0.0358 | -0.0191 | -0.0503 | –
CC1(C)CCC(CN2CCN(c3ccc(C(=O)NS(=O)(=O)c4ccc(NCC5CCOCC5)c([N+](=O)[O-])c4)c(Oc4cnc5[nH]ccc5c4)c3)CC2)=C(c2ccc(Cl)cc2)C1 [Venetoclax] + COc1cc(Nc2ncc3c(n2)-c2ccc(Cl)cc2C(c2c(F)cccc2OC)=NC3)ccc1C(=O)O [Alisertib] (first compound max 1 µM, 7x7, partner max 10 µM) | 0.0491 | 0.097 | -0.0658 | – | -0.0175 | 0.0194 | -0.0341 | 0.0102 | -0.0846 | -0.0236 | -0.0231 | 0.0353 | 0.0008 | –
CC1(C)CCC(CN2CCN(c3ccc(C(=O)NS(=O)(=O)c4ccc(NCC5CCOCC5)c([N+](=O)[O-])c4)c(Oc4cnc5[nH]ccc5c4)c3)CC2)=C(c2ccc(Cl)cc2)C1 [Venetoclax] + C[C@@H]1COCCN1C2=NC(=NC(=C2)C3(CC3)[S@](=N)(=O)C)C4=C5C=CNC5=NC=C4 [AZD6738] (first compound max 1 µM, 7x7, partner max 10 µM) | 0.0309 | 0.0104 | -0.0504 | – | -0.0501 | -0.0217 | -0.1 | -0.0314 | -0.0248 | 0.0538 | -0.057 | -0.0423 | -0.0645 | –
CC1(C)CCC(CN2CCN(c3ccc(C(=O)NS(=O)(=O)c4ccc(NCC5CCOCC5)c([N+](=O)[O-])c4)c(Oc4cnc5[nH]ccc5c4)c3)CC2)=C(c2ccc(Cl)cc2)C1 [Venetoclax] + C[C@@H](Nc1cc(F)cc(F)c1)c1cc(C(=O)N(C)C)cc2c(=O)cc(N3CCOCC3)oc12 [AZD8186] (first compound max 1 µM, 7x7, partner max 3 µM) | 0.0025 | 0.0802 | -0.0455 | – | 0.0101 | 0.0036 | -0.0442 | -0.0307 | -0.009 | 0.121 | 0.018 | -0.0458 | -0.0066 | –
CC1(C)CCC(CN2CCN(c3ccc(C(=O)NS(=O)(=O)c4ccc(NCC5CCOCC5)c([N+](=O)[O-])c4)c(Oc4cnc5[nH]ccc5c4)c3)CC2)=C(c2ccc(Cl)cc2)C1 [Venetoclax] + Cc1cc2ncnn2cc1Nc1ncc2c(n1)n(C1CCOCC1)c(=O)n2C [AZD7648] (first compound max 1 µM, 7x7, partner max 10 µM) | -0.0535 | 0.0203 | -0.0346 | – | -0.0143 | -0.0217 | -0.0444 | -0.0519 | 0.0318 | -0.087 | -0.0504 | -0.0505 | -0.0963 | –
CC1(C)CCC(CN2CCN(c3ccc(C(=O)NS(=O)(=O)c4ccc(NCC5CCOCC5)c([N+](=O)[O-])c4)c(Oc4cnc5[nH]ccc5c4)c3)CC2)=C(c2ccc(Cl)cc2)C1 [Venetoclax] + Cn1cnc2c(F)c(Nc3ccc(Br)cc3Cl)c(C(=O)NOCCO)cc21 [Selumetinib] (first compound max 1 µM, 7x7, partner max 3 µM) | -0.0271 | 0.0234 | -0.0552 | – | -0.0148 | -0.0176 | -0.0444 | -0.0268 | -0.0037 | -0.0545 | -0.0082 | -0.0792 | -0.0459 | –
